Test results published in the supplement of paper PMC10307832.

Columns and labels:
Assay in all cases: relative viability (nuclei count vs DMSO), 5 days (fraction); higher = more cells survive
[1] = compound: CC1(C)CCC(CN2CCN(c3ccc(C(=O)NS(=O)(=O)c4ccc(NCC5CCOCC5)c([N+](=O)[O-])c4)c(Oc4cnc5[nH]ccc5c4)c3)CC2)=C(c2ccc(Cl)cc2)C1 [Venetoclax] + NC(=O)Nc1cc(-c2cccc(F)c2)sc1C(=O)N[C@H]1CCCNC1 [AZD7762] (partner 0.2 µM)
In short: (§1)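 Medians of duplicate plates are given as relative viability. That measure is the nuclei count in treated wells divided by the count in vehicle wells. Counts were taken on 4× images of lung cancer cell lines in 1536-well plates, 5 days after pin-tool dosing the day after seeding with one drug alone or a fixed anchor-drug dose plus five library-drug doses (not always all listed) in √10 steps.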

[2] = compound: CC1(C)CCC(CN2CCN(c3ccc(C(=O)NS(=O)(=O)c4ccc(NCC5CCOCC5)c([N+](=O)[O-])c4)c(Oc4cnc5[nH]ccc5c4)c3)CC2)=C(c2ccc(Cl)cc2)C1 [Venetoclax] + CCNC(=O)c1noc(-c2cc(C(C)C)c(O)cc2O)c1-c1ccc(CN2CCOCC2)cc1 [Luminespib] (partner 0.01 µM)
In short: as §1

[3] = compound: Cn1cnc2c(F)c(Nc3ccc(Br)cc3Cl)c(C(=O)NOCCO)cc21 [Selumetinib] + CC(=O)c1c(C)c2cnc(Nc3ccc(N4CCNCC4)cn3)nc2n(C2CCCC2)c1=O [Palbociclib] (partner 0.5 µM)
In short: as §1

[4] = compound: CC1(C)CCC(CN2CCN(c3ccc(C(=O)NS(=O)(=O)c4ccc(NCC5CCOCC5)c([N+](=O)[O-])c4)c(Oc4cnc5[nH]ccc5c4)c3)CC2)=C(c2ccc(Cl)cc2)C1 [Venetoclax] + CC(=O)c1c(C)c2cnc(Nc3ccc(N4CCNCC4)cn3)nc2n(C2CCCC2)c1=O [Palbociclib] (partner 0.5 µM)
In short: as §1

Cell Line	relative viability ([1]; first compound 0.01 µM)	relative viability ([1]; first compound 0.03162 µM)	relative viability ([1]; first compound 0.1 µM)	relative viability ([1]; first compound 0.3162 µM)	relative viability ([1]; first compound 1 µM)	relative viability ([2]; first compound 0.01 µM)	relative viability ([2]; first compound 0.03162 µM)	relative viability ([2]; first compound 0.1 µM)	relative viability ([2]; first compound 0.3162 µM)	relative viability ([2]; first compound 1 µM)	relative viability ([3]; first compound 0.02 µM)	relative viability ([3]; first compound 0.06325 µM)	relative viability ([3]; first compound 0.2 µM)	relative viability ([3]; first compound 0.6325 µM)	relative viability ([4]; first compound 0.01 µM)	relative viability ([4]; first compound 0.03162 µM)	relative viability ([4]; first compound 0.1 µM)	relative viability ([4]; first compound 0.3162 µM)	relative viability ([4]; first compound 1 µM)
NCI-H322M	0.606	0.608	0.424	0.591	0.649	1	0.842	0.814	0.944	0.941	0.403	0.413	0.459	0.448	0.489	0.487	0.389	0.412	0.485
NCI-H358	0.338	0.527	0.556	0.714	0.558	0.402	0.313	0.245	0.579	0.321	0.123	0.125	0.127	0.125	0.131	0.114	0.13	0.13	0.131
NCI-H1944	0.74	0.573	0.429	0.479	0.468	0.992	0.787	0.775	0.879	0.696	0.303	0.312	0.253	0.231	0.401	0.314	0.314	0.288	0.299
NCI-H2342	0.734	0.75	0.491	0.388	0.53	0.807	0.737	0.635	0.765	0.719	0.476	0.53	0.498	0.482	0.564	0.491	0.56	0.508	0.52
H3255	0.875	0.999	0.944	0.901	0.782	0.915	0.993	0.846	0.947	0.822	0.318	0.353	0.339	0.339	0.34	0.316	0.315	0.33	0.296
NCI-H1993	0.635	0.787	0.651	0.816	0.763	0.881	0.843	0.917	0.896	0.777	0.592	0.557	0.527	0.427	0.643	0.652	0.717	0.616	0.541
NCI-H650	0.986	1.1	0.872	1.22	0.899	0.805	0.837	0.751	0.954	0.735	0.395	0.571	0.516	0.521	0.319	0.387	0.345	0.366	0.303
NCI-H460	0.754	0.653	0.619	0.669	0.566	0.0354	0.0317	0.0311	0.0401	0.0316	0.147	0.142	0.0907	0.0517	0.158	0.294	0.121	0.216	0.144
